According to ChEMBL document CHEMBL4418493, “N-hydroxyformamide compounds and compositions comprising them for use as BMP1, TLL1 and/or TLL2 inhibitors” (2018):

How the values were obtained:
[1] = Drug metabolism in heparinized pooled human plasma at pH 7.5 assessed as formation of (S)-2-(2-(carboxymethoxy)-4-(5-((((R)-2-((R)-1-(N-hydroxyformamido)propyl)heptanamido)methyl)carbamoyl)furan-2-yl)benzamido)succinic acid at 100 to 2000 ng/ml incubated up to 4 or 24 hrs by LC-MS/MS analysis; type: ADME, cell-free; details: pH 7.5, 24 h
[2] = Reduction in PICP levels in human cardiac fibroblasts incubated for 24 to 48 hrs by ELISA; type: functional

Row | Structure (SMILES) | Drug metabolism [1] | IC50 [2] [µM]
1 | CCCCC[C@@H](C(=O)NCNC(=O)c1ccc(-c2ccc(C(=O)N[C@@H](CC(=O)O)C(=O)O)c(OCC(=O)O)c2)o1)[C@@H](CC)N(C=O)OC(=O)C(c1ccccc1)c1ccccc1 | Metabolite_Detected | < 3.98
2 | CCCCC[C@@H](C(=O)NCNC(=O)c1ccc(-c2ccc(C(=O)N[C@@H](CC(=O)O)C(=O)O)c(OCC(=O)O)c2)o1)[C@@H](CC)N(C=O)OC(=O)C1(C)CC1 | Metabolite_Detected | < 3.98
3 | CCCCC[C@@H](C(=O)NCNC(=O)c1ccc(-c2ccc(C(=O)N[C@@H](CC(=O)O)C(=O)O)c(OCC(=O)O)c2)o1)[C@@H](CC)N(C=O)OC(=O)c1c(C)ccnc1C | Metabolite_Detected | < 3.98
4 | CCCCC[C@@H](C(=O)NCNC(=O)c1ccc(-c2ccc(C(=O)N[C@@H](CC(=O)O)C(=O)O)c(OCC(=O)O)c2)o1)[C@@H](CC)N(C=O)OC(=O)NC(C)C | Metabolite_Detected | < 3.98
5 | CCCCC[C@@H](C(=O)NCNC(=O)c1ccc(-c2ccc(C(=O)N[C@@H](CC(=O)O)C(=O)O)c(OCC(=O)O)c2)o1)[C@@H](CC)N(C=O)OC(=O)NC(C)(C)c1ccccc1 | Metabolite_Detected | –
6 | CCCCC[C@@H](C(=O)NCNC(=O)c1ccc(-c2ccc(C(=O)N[C@@H](CC(=O)O)C(=O)O)c(OCC(=O)O)c2)o1)[C@@H](CC)N(C=O)OC(=O)c1ccccc1OC(=O)N(C)C | Metabolite_Detected | –
7 | CCCCC[C@@H](C(=O)NCNC(=O)c1ccc(-c2ccc(C(=O)N[C@@H](CC(=O)O)C(=O)O)c(OCC(=O)O)c2)o1)[C@@H](CC)N(C=O)OC(=O)c1ccc(CN2CCOCC2)cc1 | Metabolite_Detected | < 3.98
8 | CCCCC[C@@H](C(=O)NCNC(=O)c1ccc(-c2ccc(C(=O)N[C@@H](CC(=O)O)C(=O)O)c(OCC(=O)O)c2)o1)[C@@H](CC)N(C=O)OP(=O)(N[C@@H](C)C(=O)OC)Oc1ccccc1.N.N.N (some centres undefined) | Metabolite_Detected | –
9 | CCCCC[C@@H](C(=O)NCNC(=O)c1ccc(-c2ccc(C(=O)N[C@@H](CC(=O)O)C(=O)O)c(OCC(=O)O)c2)o1)[C@@H](CC)N(C=O)OC(=O)NC(C)(C)C | Metabolite_Detected | < 3.98
10 | CCCCC[C@@H](C(=O)NCNC(=O)c1ccc(-c2ccc(C(=O)N[C@@H](CC(=O)O)C(=O)O)c(OCC(=O)O)c2)o1)[C@@H](CC)N(C=O)OC(=O)c1c(C)noc1C | Metabolite_Detected | < 3.98

Now from value to molecule, other results behind:

Row | Drug metabolism [1] | Structure (SMILES) | IC50 [2] [µM]
11 | Metabolite_Detected | CCCCC[C@@H](C(=O)NCNC(=O)c1ccc(-c2ccc(C(=O)N[C@@H](CC(=O)O)C(=O)O)c(OCC(=O)O)c2)o1)[C@@H](CC)N(C=O)OC(=O)c1c(C)cccc1F | –
12 | Metabolite_Detected | CCCCC[C@@H](C(=O)NCNC(=O)c1ccc(-c2ccc(C(=O)N[C@@H](CC(=O)O)C(=O)O)c(OCC(=O)O)c2)o1)[C@@H](CC)N(C=O)OC(=O)c1ccc2ccccc2c1 | < 3.98
13 | Metabolite_Detected | CCCCC[C@@H](C(=O)NCNC(=O)c1ccc(-c2ccc(C(=O)N[C@@H](CC(=O)O)C(=O)O)c(OCC(=O)O)c2)o1)[C@@H](CC)N(C=O)OC(=O)Nc1ccccc1 | –
14 | Metabolite_Detected | CCCCC[C@@H](C(=O)NCNC(=O)c1ccc(-c2ccc(C(=O)N[C@@H](CC(=O)O)C(=O)O)c(OCC(=O)O)c2)o1)[C@@H](CC)N(C=O)OC(=O)c1ccccc1C(C)C | < 3.98
15 | Metabolite_Detected | CCCCC[C@@H](C(=O)NCNC(=O)c1ccc(-c2ccc(C(=O)N[C@@H](CC(=O)O)C(=O)O)c(OCC(=O)O)c2)o1)[C@@H](CC)N(C=O)OC(=O)c1ccccc1N | < 3.98
16 | Metabolite_Detected | CCCCC[C@@H](C(=O)NCNC(=O)c1ccc(-c2ccc(C(=O)N[C@@H](CC(=O)O)C(=O)O)c(OCC(=O)O)c2)o1)[C@@H](CC)N(C=O)OC(=O)c1ccccc1NC | < 3.98
17 | Metabolite_Detected | CCCCC[C@@H](C(=O)NCNC(=O)c1ccc(-c2ccc(C(=O)N[C@@H](CC(=O)O)C(=O)O)c(OCC(=O)O)c2)o1)[C@@H](CC)N(C=O)OC(=O)c1cccc2ccccc12 | < 3.98
